Reference: US10981879B2, “Thioether triazolopyridine and triazolopyrimidine inhibitors of myeloperoxidase” (BRISTOL-MYERS SQUIBB COMPANY, priority 2014, dated 2021)

Target: myeloperoxidase (MPO) (Homo sapiens (Human), UniProt P05164)
Test: MPO chlorination assay (APF)
Type: biochemical
Conditions: MPO chlorination assay, ranges given; read-out: MPO chlorination assay IC50
Protocol: MPO chlorination activity was measured in 100 mM KPi (pH 7.4) by utilizing the non-fluorescent reagent Aminophenyl fluorescein (APF, Invitrogen catalog #A36003). APF is cleaved by (—OCl) to yield the fluorescent compound fluorescein. Reactions were carried out in 50 μL total volume by adding a 25 μL mixture of 200 pM myeloperoxidase and 120 mM NaCl to 100 nL inhibitor in 100% DMSO in a 384 well, non-binding surface clear bottom plate (CORNING® #3655). Enzyme, inhibitor, and chloride were preincubated for ten minutes at rt.
After the ten minute preincubation, 25 μL of an APF mixture containing […], 120 mM NaCl and 10 μM H2O2 was added to the plate using the internal dispensing system of a Hammatsu FDSS 6000. Kinetic determinations were carried out immediately on the FDSS 6000 (3 minute kinetic read, 1 read every second, ex: 485 nm, em: 535 nm). IC50 values for inhibitors were calculated by taking the slope of the linear portion of the kinetic measurement (20 seconds to ˜80-120 secs). […]
[formula] where A=minimal Y value (activity level of inhibited sample), B=maximal Y value (activity level of uninhibited sample), C=Log IC50, D=Hill Slope, x=concentration of inhibitor. EPX Bromination Assay

Chain of myeloperoxidase (MPO) (P05164 49-745): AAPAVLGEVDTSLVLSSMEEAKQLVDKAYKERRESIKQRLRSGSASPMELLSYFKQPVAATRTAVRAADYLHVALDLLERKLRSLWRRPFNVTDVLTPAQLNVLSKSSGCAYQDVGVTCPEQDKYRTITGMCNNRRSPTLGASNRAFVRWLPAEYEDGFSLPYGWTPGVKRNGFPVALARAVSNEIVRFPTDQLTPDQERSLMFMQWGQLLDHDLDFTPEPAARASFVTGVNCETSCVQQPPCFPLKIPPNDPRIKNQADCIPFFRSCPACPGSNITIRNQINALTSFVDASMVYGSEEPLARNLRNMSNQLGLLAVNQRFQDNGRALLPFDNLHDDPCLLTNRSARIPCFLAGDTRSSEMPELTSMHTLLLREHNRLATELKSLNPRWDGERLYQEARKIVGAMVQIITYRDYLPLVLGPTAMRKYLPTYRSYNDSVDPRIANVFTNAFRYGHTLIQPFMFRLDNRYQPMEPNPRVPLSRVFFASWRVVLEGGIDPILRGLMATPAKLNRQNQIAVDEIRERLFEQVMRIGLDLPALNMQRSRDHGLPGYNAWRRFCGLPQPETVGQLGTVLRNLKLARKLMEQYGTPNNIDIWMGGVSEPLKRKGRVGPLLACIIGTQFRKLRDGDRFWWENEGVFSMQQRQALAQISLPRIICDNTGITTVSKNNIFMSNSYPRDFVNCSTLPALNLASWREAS

SMILES | IC50 [nM]
Nc1cc(SCc2ccccc2CN2CCOCC2)c2nn[nH]c2n1 [Example 94, 7-((2-(morpholinomethyl)benzyl)thio)-3H-[1,2,3] triazolo[4,5-b]pyridin-5-amine] | 60 to 200
Nc1cc(SCc2ccccc2CN2CCC2)c2nn[nH]c2n1 [Example 95, 7-((2-(azetidin-1-ylmethyl)benzyl)thio)-3H-[1,2,3] triazolo[4,5-b]pyridin-5-amine] | 60 to 200
CN(C)Cc1ccccc1CSc1cc(N)nc2[nH]nnc12 [Example 96, 7-((2-((dimethylamino)methyl)benzyl)thio)-3H-[1,2,3]triazolo[4,5-b]pyridin-5-amine] | 60 to 200
Nc1cc(SCc2ccccc2CN2CCCCC2)c2nn[nH]c2n1 [Example 97, 7-((2-(piperidin-1-ylmethyl)benzyl)thio)-3H-[1,2,3] triazolo[4,5-b]pyridin-5-amine] | 60 to 200
CN(C)Cc1ccc(F)c(CSc2cc(N)nc3[nH]nnc23)c1 [Example 99, 7-((5-((dimethylamino)methyl)-2-fluorobenzyl)thio)-3H-[1,2,3]triazolo[4,5-b]pyridin-5-amine] | 60 to 200
Cn1nc(C2CC2)cc1CSc1cc(N)nc2[nH]nnc12 [Example 100, 7-(((3-cyclopropyl-1-methyl-1H-pyrazol-5-yl)methyl)thio)-3H-[1,2,3]triazolo[4,5-b]pyridin-5-amine] | 60 to 200
Nc1cc(SCc2cc(-c3ccccc3)on2)c2nn[nH]c2n1 [Example 101, 7-(((5-phenylisoxazol-3-yl)methyl)thio)-3H-[1,2,3] triazolo[4,5-b]pyridin-5-amine] | 60 to 200
CS(=O)(=O)c1cccc(Cl)c1CSc1cc(N)nc2[nH]nnc12 [Example 102, 7-((2-chloro-6-(methylsulfonyl)benzyl)thio)-3H-[1,2,3]triazolo[4,5-b]pyridin-5-amine] | 60 to 200
Cn1nc(CSc2cc(N)nc3[nH]nnc23)cc1-c1ccccc1 [Example 103, 7-(((1-methyl-5-phenyl-1H-pyrazol-3-yl)methyl)thio)-3H-[1,2,3]triazolo[4,5-b] pyridin-5-amine] | 60 to 200
Nc1cc(SCc2cccc3c2OC(F)(F)O3)c2nn[nH]c2n1 [Example 105, 7-(((2,2-difluorobenzo[d] [1,3]dioxol-4-yl)methyl)thio)-3H-[1,2,3]triazolo[4,5-b]pyridin-5-amine] | 60 to 200
CCOC(=O)C(Sc1cc(N)nc2[nH]nnc12)c1ccccc1 (stereo not drawn) [Example 106, ethyl 2-((5-amino-3H-[1,2,3]triazolo[4,5-b]pyridin-7-yl)thio)-2-phenylacetate] | 60 to 200
CC(Sc1cc(N)nc2[nH]nnc12)c1cccnc1 (stereo not drawn) [Example 107, 7-((1-(pyridin-3-yl)ethyl)thio)-3H-[1,2,3]triazolo[4,5-b]pyridin-5-amine] | 60 to 200
N#Cc1ncccc1CSc1cc(N)nc2[nH]nnc12 [Example 108, 3-(((5-amino-3H-[1,2,3]triazolo[4,5-b]pyridin-7-yl)thio)methyl)picolinonitrile] | 60 to 200
N#Cc1ccc(OC(F)F)cc1CSc1cc(N)nc2[nH]nnc12 [Example 109] | ≤ 60
N#Cc1ccc(OC2CC2)cc1CSc1cc(N)nc2[nH]nnc12 [Example 110, 2-(((5-amino-3H-[1,2,3]triazolo[4,5-b]pyridin-7-yl)thio)methyl)-4-cyclopropoxybenzonitrile] | 60 to 200
Cn1nc(C2CC2)c(Cl)c1CSc1cc(N)nc2[nH]nnc12 [Example 111, 7-(((4-chloro-3-cyclopropyl-1-methyl-1H-pyrazol-5-yl)methyl)thio)-3H-[1,2,3] triazolo[4,5-b]pyridin-5-amine] | 60 to 200
Cn1nc(-c2ccccc2)c(Cl)c1CSc1cc(N)nc2[nH]nnc12 [Example 112, 7-(((4-chloro-1-methyl-3-phenyl-1H-pyrazol-5-yl)methyl)thio)-3H-[1,2,3] triazolo[4,5-b]pyridin-5-amine] | ≤ 60
Nc1cc(SCc2cnn(-c3ccccc3)c2C(F)(F)F)c2nn[nH]c2n1 [Example 114, 7-(((1-phenyl-5-(trifluoromethyl)-1H-pyrazol-4-yl)methyl)thio)-3H-[1,2,3]triazolo[4,5-b] pyridin-5-amine] | 60 to 200
Nc1cc(SCc2cn(C3CCCCC3)nc2C(F)(F)F)c2nn[nH]c2n1 [Example 115, 7-(((1-cyclohexyl-3-(trifluoromethyl)-1H-pyrazol-4-yl)methyl)thio)-3H-[1,2,3]triazolo[4,5-b] pyridin-5-amine] | 60 to 200
N#Cc1cccc(Cl)c1CSc1cc(N)nc2[nH]nnc12 [Example 117, 2-(((5-amino-3H-[1,2,3]triazolo[4,5-b]pyridin-7-yl)thio)methyl)-3-chlorobenzonitrile] | ≤ 60

SMILES | IC50 [nM]
Nc1cc(SCc2cc(Cl)cc(S(N)(=O)=O)c2Cl)c2nn[nH]c2n1 [Example 118, 3-(((5-amino-3H-[1,2,3]triazolo[4,5-b]pyridin-7-yl)thio)methyl)-2,5-dichlorobenzenesulfonamide] | ≤ 60
Nc1cc(SCc2ccc(S(N)(=O)=O)cc2Cl)c2nn[nH]c2n1 [Example 119, 4-(((5-amino-3H-[1,2,3]triazolo[4,5-b]pyridin-7-yl)thio)methyl)-3-chlorobenzenesulfonamide] | 60 to 200
NC(=O)c1ccc(CSc2cc(N)nc3[nH]nnc23)c(F)c1 [Example 120, 4-(((5-amino-3H-[1,2,3]triazolo[4,5-b]pyridin-7-yl)thio)methyl)-3-fluorobenzamide] | 200 to 1000
N#Cc1ccc(F)c(CSc2cc(N)nc3[nH]nnc23)c1 [Example 123, 3-(((5-amino-3H-[1,2,3]triazolo[4,5-b]pyridin-7-yl)thio)methyl)-4-fluorobenzonitrile] | 60 to 200
N#Cc1ccc(CSc2cc(N)nc3[nH]nnc23)c(Cl)c1 [Example 124, 4-(((5-amino-3H-[1,2,3]triazolo[4,5-b]pyridin-7-yl)thio)methyl)-3-chlorobenzonitrile] | 200 to 1000
Nc1cc(SCc2cccc3cccnc23)c2nn[nH]c2n1 [Example 125, 7-((quinolin-8-ylmethyl)thio)-3H-[1,2,3] triazolo[4,5-b]pyridin-5-amine] | ≤ 60
Nc1cc(SC(C(=O)NCc2ccccc2)c2ccccc2)c2nn[nH]c2n1 (stereo not drawn) [Example 127, 2-((5-Amino-3H-[1,2,3]triazolo[4,5-b]pyridin-7-yl)thio)-N-benzyl-2-phenylacetamide] | 200 to 1000
Nc1cc(SC(CNCc2ccccc2)c2ccccc2)c2nn[nH]c2n1 (stereo not drawn) [Example 128, 7-((2-(Benzylamino)-1-phenylethyl)thio)-3H-[1,2,3]triazolo[4,5-b]pyridin-5-amine] | 60 to 200
N#Cc1cccc(-n2cccn2)c1CSc1cc(N)nc2[nH]nnc12 [Example 129, 2-(((5-Amino-3H-[1,2,3]triazolo[4,5-b]pyridin-7-yl)thio)methyl)-3-(1H-pyrazol-1-yl)benzonitrile] | 200 to 1000
N#Cc1ccc(-c2ccncc2)c(CSc2cc(N)nc3[nH]nnc23)c1 [Example 130, 3-(((5-Amino-3H-[1,2,3]triazolo[4,5-b]pyridin-7-yl)thio)methyl)-4-(pyridin-4-yl)benzonitrile] | ≤ 60
N#Cc1cccc(-n2ccnc2)c1CSc1cc(N)nc2[nH]nnc12 [Example 131, 2-(((5-amino-3H-[1,2,3]triazolo[4,5-b]pyridin-7-yl)thio)methyl)-3-(1H-imidazol-1-yl)benzonitrile] | 200 to 1000
N#Cc1ccc(-n2cccn2)c(CSc2cc(N)nc3[nH]nnc23)c1 [Example 132, 3-(((5-amino-3H-[1,2,3]triazolo[4,5-b]pyridin-7-yl)thio)methyl)-4-(1H-pyrazol-1-yl) benzonitrile] | 60 to 200
N#Cc1ccc(CSc2cc(N)nc3[nH]nnc23)c(C2CC2)c1 [Example 133, 4-(((5-amino-3H-[1,2,3]triazolo[4,5-b]pyridin-7-yl)thio)methyl)-3-cyclopropylbenzonitrile] | ≤ 60
Nc1cc(SCc2cn(-c3ccccc3)nc2C2CC2)c2nn[nH]c2n1 [Example 134, 7-(((3-Cyclopropyl-1-phenyl-1H-pyrazol-4-yl)methyl)thio)-3H-[1,2,3]triazolo[4,5-b]pyridin-5-amine] | ≤ 60
Nc1cc(SCc2cn(-c3ccccn3)nc2C(F)(F)F)c2nn[nH]c2n1 [Example 135, 7-(((1-(pyridin-2-y1)-3-(trifluoromethyl)-1H-pyrazol-4-yl)methyl)thio)-3H-[1,2,3] triazolo[4,5-b]pyridin-5-amine] | ≤ 60
Nc1cc(SCc2cn(-c3cccnc3)nc2C(F)(F)F)c2nn[nH]c2n1 [Example 136] | ≤ 60
Nc1cc(SCc2cn(-c3ccncc3)nc2C(F)(F)F)c2nn[nH]c2n1 [Example 137] | ≤ 60
Nc1cc(SCc2cn(-c3ccccc3)nc2C(F)F)c2nn[nH]c2n1 [Example 138, 7-(((3-(difluoromethyl)-1-phenyl-1H-pyrazol-4-yl)methyl)thio)-3H-[1,2,3]triazolo[4,5-b] pyridin-5-amine] | ≤ 60
CN(C)c1cccc(-n2cc(CSc3cc(N)nc4[nH]nnc34)c(C(F)(F)F)n2)n1 [Example 140, 7-(((1-(6-(dimethylamino)pyridin-2-yl)-3-(trifluoromethyl)-1H-pyrazol-4-yl)methyl)thio)-3H-[1,2,3]triazolo [4,5-b]pyridin-5-amine] | 200 to 1000
